Patent US8299113B2, “Bicyclic tetrahydropyrrole compounds” (Laboratorios del Dr. Esteve, S.A., priority 2006, dated 2012)

Key:
σ1-receptor = target: T1, σ1-receptor (Cavia porcellus, UniProt Q60492); experiment: Sigma-1 receptor radioligand binding, [3H](+)-pentazocine, brain membranes; conditions: [3H](+)-pentazocine 0.5 nM, guinea pig brain membranes; for % Binding σ1 10^−7M: compound concentration 10^−7 M; for % Binding σ1 10^−8M: compound concentration 10^−8 M
T1 construct: guinea pig brains are homogenized; from tissue; host or cells: guinea pig brain membranes
T1 sequence (Q60492 whole entry): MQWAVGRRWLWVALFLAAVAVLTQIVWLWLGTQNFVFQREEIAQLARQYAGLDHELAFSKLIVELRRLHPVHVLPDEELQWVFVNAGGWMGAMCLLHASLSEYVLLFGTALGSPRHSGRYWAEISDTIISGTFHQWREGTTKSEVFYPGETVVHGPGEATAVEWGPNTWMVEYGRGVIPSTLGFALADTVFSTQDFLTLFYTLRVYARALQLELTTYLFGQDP
Experimental: Brain membrane preparation and binding assays for the σ1-receptor are performed as described (DeHaven-Hudkins et al., 1992) with some modifications. In brief, guinea pig brains are homogenized in 10 vols. (w/v) of Tris-HCl 50 mM 0.32 M sucrose, pH 7.4 is centrifuged at 1000 g for 10 min at 4° C. and the supernatants collected and centrifuged again at 48000 g for 15 min at 4° C. The pellet is resuspended in 10 volumes of Tris-HCl buffer (50 mM, pH 7.4), incubated at 37° C. for 30 min, and centrifuged at 48000 g for 20 min at 4° C. Following this, the pellet is resuspended in fresh Tris-HCl buffer (50 mM, pH 7.4) and stored on ice until use.
Each assay tube contain 10 μL of [^3H](+)-pentazocine (final concentration of 0.5 nM), 900 μL of the tissue suspension to a final assay volume of 1 mL and a final tissue concentration of approximately 30 mg tissue net weight/mL. […] All tubes are incubated at 37° C. for 150 min before termination of the reaction by rapid filtration over Schleicher & Schuell GF 3362 glass fibre filters [previously soaked in a solution of 0.5% polyethylenimine for at least 1 h]. Filters are then washed four times with 4 mL of cold Tris-HCl buffer (50 mM, pH 7.4). Following addition of scintillation cocktail, the samples are allowed to equilibrate overnight. The amount of bound radioactivity is determined by liquid scintillation spectrometry using a Wallac Winspectral 1414 liquid scintillation counter. Protein concentrations are determined by the method of Lowry et al. (1951).

sigma (σ-2) site = sigma (σ-2) site (Homo sapiens, UniProt Q5BJF2); conditions: background, in words; cited from earlier work
Sequence of sigma (σ-2) site (Q5BJF2 whole entry): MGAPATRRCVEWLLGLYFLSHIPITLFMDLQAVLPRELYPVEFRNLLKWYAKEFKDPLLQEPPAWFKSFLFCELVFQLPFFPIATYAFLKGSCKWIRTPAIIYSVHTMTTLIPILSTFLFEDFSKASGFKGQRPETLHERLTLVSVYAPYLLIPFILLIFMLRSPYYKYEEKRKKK

sigma 1 (σ-1) site = sigma 1 (σ-1) site (Homo sapiens, UniProt Q99720); conditions: background, in words; cited from earlier work
Sequence of sigma 1 (σ-1) site (Q99720 whole entry): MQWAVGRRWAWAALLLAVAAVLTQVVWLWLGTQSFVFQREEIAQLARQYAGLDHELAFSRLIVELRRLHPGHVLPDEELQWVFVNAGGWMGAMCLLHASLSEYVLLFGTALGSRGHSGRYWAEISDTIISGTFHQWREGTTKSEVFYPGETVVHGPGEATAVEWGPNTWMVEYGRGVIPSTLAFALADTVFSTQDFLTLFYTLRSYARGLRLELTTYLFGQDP

Row | Molecule | % Binding σ1 10^−7M (σ1-receptor) [%] | % Binding σ1 10^−8M (σ1-receptor) [%] | affinity for the sigma (σ-2) site (sigma (σ-2) site) | affinity for the sigma 1 (σ-1) site (sigma 1 (σ-1) site)
1 | COC(=O)[C@H](c1ccccc1)N1C[C@H]2C=C(c3ccccc3)C(=O)[C@H]2C1 [Example 3] | 31.3 | 28.0 | – | –
2 | COC(=O)[C@H](c1ccccc1)N1C[C@@H]2C=C(c3ccccc3)C(=O)[C@@H]2C1 [Example 4] | 32.3 | 24.8 | – | –
3 | SKF 10047 | – | – | micromolar | nanomolar
4 | CCOC(=O)[C@H](C)N1C[C@@H]2C=C(c3ccccc3)C(=O)[C@@H]2C1 [Example 12] | 32.4 | 16.7 | – | –
5 | CCCCC1=C[C@H]2CN([C@@H](C)C(=O)OCC)C[C@H]2C1=O [Example 14, (2S)-ethyl 2-((3aS,6aR)-5-butyl-4-oxo-1,3a,4,6a-tetrahydrocyclopenta[c]pyrrol-2(1H)-yl)propanoate] | 39.6 | 28.8 | – | –
6 | CCCCC1=C[C@@H]2CN([C@@H](C)C(=O)OCC)C[C@@H]2C1=O [Example 13, (2S)-ethyl2-((3aR,6aS)-5-butyloxo-1,3a,4,6a-tetrahydrocyclopenta[c]pyrrol-2(1H)-yl)propanoate] | 26.9 | 17.6 | – | –
7 | CCOC(=O)[C@H](C)N1C[C@H]2C=C(c3ccccc3)C(=O)[C@H]2C1 [Example 11] | 33.2 | 25.6 | – | –
